Assay results from US11083199B2, “Heterocycle derivatives as pesticides” (Bayer Aktiengesellschaft, priority 2017, dated 2021).

How the values were obtained:
Assay type in all cases: in vivo
[1] = system: Myzus persicae; assay: Myzus persicae spray test; settings: foliar, 120 h, application rate 100 g/ha, Chinese cabbage leaf discs, after 5 days, read-out: efficacy
Description: (§1) [table] To produce a suitable active ingredient formulation, 1 part by weight of active ingredient is dissolved with the specified parts by weight of solvent and made up to the desired concentration with water containing an emulsifier concentration of 1000 ppm. To produce further test concentrations, the formulation is diluted with emulsifier-containing water. Discs of Chinese cabbage leaves (Brassica pekinensis) infested by all stages of the green peach aphid (Myzus persicae) are sprayed with an active ingredient formulation of the desired concentration. After 5 days, the efficacy in % is determined. 100% means that all the aphids have been killed; 0% means that no aphids have been killed.

[2] = system: Tetranychus urticae; assay: Tetranychus urticae spray test, OP-resistant; settings: foliar, 144 h, bean leaf discs, after 6 days, read-out: efficacy; for pest or weed control at 100 g/ha: application rate 100 g/ha
Description: [table] To produce a suitable active ingredient formulation, 1 part by weight of active ingredient is dissolved with the specified parts by weight of solvent and made up to the desired concentration with water containing an emulsifier concentration of 1000 ppm. To produce further test concentrations, the formulation is diluted with emulsifier-containing water. Discs of bean leaves (Phaseolus vulgaris) infested with all stages of the greenhouse red spider mite (Tetranychus urticae) are sprayed with an active ingredient formulation of the desired concentration. After 6 days, the efficacy in % is determined. 100% means that all the spider mites have been killed; 0% means that no spider mites have been killed.

[3] = system: Myzus persicae; assay: Myzus persicae oral test; settings: 120 h, application rate 4 ppm, after 5 days, read-out: efficacy
Description: [table] To produce a suitable active ingredient formulation, 1 part by weight of active ingredient is dissolved with the stated parts by weight of solvent and made up to the desired concentration with water. 50 μl of the active ingredient formulation are transferred into microtitre plates and made up to a final volume of 200 μl with 150 μl of IPL41 insect medium (33%+15% sugar). Subsequently, the plates are sealed with parafilm, which a mixed population of green peach aphids (Myzus persicae) within a second microtitre plate is able to puncture and imbibe the solution. After 5 days, the efficacy in % is determined. 100% means that all the aphids have been killed; 0% means that no aphids have been killed.

[4] = system: Phaedon cochleariae; assay: Phaedon cochleariae spray test; settings: 168 h, application rate 100 g/ha, larvae, after 7 days, read-out: efficacy
Description: as §1, with “pekinensis)” for “pekinensis) infested by all stages of the green peach aphid (Myzus persicae)”, “concentration and, after drying, populated with larvae of the mustard beetle (Phaedon cochleariae).” for “concentration.”, “7” for “5”, “beetle larvae” for “aphids”

[5] = system: Ctenocephalides felis; assay: Ctenocephalides felis oral test; settings: 48 h, application rate 100 ppm in citrated cattle blood, kill after 2 days, read-out: efficacy
Description: Solvent: dimethyl sulfoxide To produce a suitable active ingredient formulation, 10 mg of active ingredient are mixed with 0.5 ml of dimethyl sulfoxide. Dilution with citrated cattle blood gives the desired concentration. About 20 unfed adult cat fleas (Ctenocephalides felis) are placed into a chamber which is closed at the top and bottom with gauze. A metal cylinder whose bottom end is closed with parafilm is placed onto the chamber. The cylinder contains the blood/active ingredient formulation, which can be imbibed by the fleas through the parafilm membrane. After 2 days, the kill in % is determined. 100% means that all of the fleas have been killed; 0% means that none of the fleas have been killed.

[6] = system: Spodoptera frugiperda; assay: Spodoptera frugiperda spray test; settings: foliar, 168 h, application rate 100 g/ha, maize leaf discs, caterpillars, after 7 days, read-out: efficacy
Description: [table] To produce a suitable active ingredient formulation, 1 part by weight of active ingredient is dissolved with the specified parts by weight of solvent and made up to the desired concentration with water containing an emulsifier concentration of 1000 ppm. To produce further test concentrations, the formulation is diluted with emulsifier-containing water. Leaf discs of maize (Zea mays) are sprayed with an active ingredient formulation of the desired concentration and, after drying, populated with caterpillars of the fall armyworm (Spodoptera frugiperda). After 7 days, the efficacy in % is determined. 100% means that all the caterpillars have been killed; 0% means that no caterpillar has been killed.

[7] = system: Lucilia cuprina; assay: Lucilia cuprina test; settings: 48 h, application rate 100 ppm, L1 larvae, kill after 2 days, read-out: efficacy
Description: Solvent: dimethyl sulfoxide To produce a suitable active ingredient formulation, 10 mg of active ingredient are mixed with 0.5 ml of dimethyl sulfoxide, and the concentrate is diluted with water to the desired concentration. About 20 L1 larvae of the Australian sheep blowfly (Lucilia cuprina) are transferred into a test vessel containing minced horsemeat and the active ingredient formulation of the desired concentration. After 2 days, the kill in % is determined. 100% means that all the larvae have been killed; 0% means that no larvae have been killed.

Row | Compound | pest or weed control at 100 g/ha [1] | pest or weed control at 100 g/ha [2] | pest or weed control at 4 ppm [3] | pest or weed control at 100 g/ha [4] | pest or weed control at 100 ppm [5] | pest or weed control at 100 g/ha [6] | pest or weed control at 100 ppm [7] | pest or weed control at 20 g/ha ([2]; application rate 20 g/ha)
1 | CCS(=O)(=O)c1c(-c2nc3cc(C(F)(F)F)ncc3n2C)nc(-c2c(C)nn(C)c2C)n1C [Example I-050] | 90% | 90% | 90% | – | – | – | – | –
2 | CCS(=O)(=O)c1c(-c2nc3cc(C(F)(F)F)ncc3n2C)nc(C(N)=O)n1C [Example I-038, 5-(Ethylsulfonyl)-1-methyl-4-[3-methyl-6-(trifluoromethyl)-3H-imidazo[4,5-c]pyridin-2-yl]-1H-imidazole-2-carboxamide] | 90% | – | 100% | 100% | 100% | – | – | –
3 | CCS(=O)(=O)c1c(-c2nc3cc(C(F)(F)F)nnc3n2C)nc(-c2ccc(Cl)cc2)n1C [Example I-063] | 100% | – | 100% | 100% | – | 100% | – | –
4 | CCS(=O)(=O)c1c(-c2nc3cc(C(F)(F)F)ncc3n2C)nc(-n2cc(Cl)cn2)n1C [Example I-027, 2-[2-(4-chloro-1H-pyrazol-1-yl)-5-(ethylsulfonyl)-1-methyl-1H-imidazol-4-yl]-3-methyl-6-(trifluoromethyl)-3H-imidazo[4,5-c]pyridine] | 90% | – | 100% | 100% | – | 100% | – | –
5 | CCS(=O)(=O)c1c(-c2nc3cc(C(F)(F)F)ncc3n2C)nc(C(C)C)n1C [Example I-086] | 90% | 90% | 100% | – | – | – | – | –
6 | C=C(C)c1nc(-c2nc3cc(C(F)(F)F)ncc3n2C)c(S(=O)(=O)CC)n1C [Example I-008] | 90% | – | 100% | – | – | – | 100% | –
7 | CCS(=O)(=O)c1c(-n2cc3cnc(C(F)(F)F)cc3n2)nc(-c2ccc(C(F)(F)F)cc2)n1C [Example I-097] | – | – | 100% | 100% | – | 100% | – | –
8 | CCS(=O)(=O)c1c(-n2cc3ncc(C(F)(F)F)cc3n2)nc(-c2ccc(Cl)cc2)n1C [Example I-094] | – | – | 100% | 83% | – | 100% | – | –
9 | CCS(=O)(=O)c1c(-c2nc3cc(C(F)(F)F)ncc3n2C)nc(-c2ccc(C3(C#N)CC3)cc2)n1C [Example I-069] | 90% | – | 100% | 100% | – | 100% | – | –
10 | CCS(=O)(=O)c1c(-c2nc3cc(C(F)(F)F)ncc3n2C)nc(-c2cc(Cl)cc(C3(C#N)CC3)c2)n1C [Example I-077] | 90% | 100% | – | 100% | – | – | – | 90%
11 | CCS(=O)(=O)c1c(-c2nc3cc(C(F)(F)F)ncc3n2C)nc(C(=O)N(C)C)n1C [Example I-040] | 100% | – | 100% | – | 90% | – | 100% | –
12 | CCn1c(Br)nc(-c2nc3cc(C(F)(F)F)ncc3n2C)c1S(=O)(=O)CC [Example I-001] | – | – | 100% | – | – | – | 100% | –
13 | CCS(=O)(=O)c1c(-c2nc3cc(C(F)(F)F)ncc3n2C)nc(-c2ccncc2)n1C [Example I-021] | 100% | – | 100% | – | – | – | 80% | –
